Measurements as given in patent US20250154169A1, “COMPOUNDS AND METHODS FOR MODULATING SPLICING” (REMIX THERAPEUTICS INC., priority 2021, published 2025).
Counter-ions that a name gives are not always drawn. Like-named read-outs stand apart in the source and are kept apart here.

How the values were obtained:
Assay type in all cases: cell-based, human
HTT mRNA [1] = test: Splicing RT-qPCR assay, HTT canonical (CJ) and alternative (AJ) junction mRNA; settings: Homo sapiens, A673 or K562 cells, 24 hours compound treatment; for IC50: 24 h, read-out: HTT CJ (IC50, decrease in canonical junction mRNA); for AC50: read-out: HTT AJ (AC50, increase in alternative junction mRNA)
How it was run: (§1)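 Read-out is the abundance of canonical-junction versus new alternative-exon-junction mRNA, determined by real-time qPCR after cDNA synthesis and normalized to a housekeeping gene. It is measured in A673 or K562 cells exposed to compounds for 24 h, top dose 10 uM.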

MYB mRNA = test: Splicing RT-qPCR assay, MYB canonical (CJ) and alternative (AJ) junction mRNA; settings: Homo sapiens; for AC50: read-out: MYB AJ (AC50, increase in alternative junction mRNA)
How it was run: as §1

SMN2 mRNA = test: Splicing RT-qPCR gene panel, SMN2 canonical junction (CJ) mRNA; settings: Homo sapiens, Tables 4A/4B, read-out: SMN2 (IC50, decrease in CJ mRNA, gene panel)
How it was run: (§2)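 Canonical-junction mRNA levels were quantified by RT-qPCR in lysates, using ΔΔCt against a housekeeping gene (GAPDH, GUSB or PPIA) and DMSO wells, expressed as percentage response. Cells (A673 or K562) had been exposed for 24 h at 37° C. to 11 three-fold compound concentrations up to 10 uM, DMSO ≤0.25%.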

Target C mRNA = test: Splicing RT-qPCR gene panel, Target C canonical junction (CJ) mRNA; settings: Tables 4A/4B, read-out: Target C (IC50, decrease in CJ mRNA, gene panel)
How it was run: as §2

HTT mRNA [2] = test: Splicing RT-qPCR gene panel, HTT canonical junction (CJ) mRNA; settings: Homo sapiens, Tables 4A/4B, read-out: HTT (IC50, decrease in CJ mRNA, gene panel)
How it was run: as §2

[3] = 24 h, A673 or K562 cells, 24 hours compound treatment, RT-qPCR
[4] = 24 h, A673 or K562 cells, 24 hours compound treatment, RT-qPCR, read-out: MYB CJ (IC50, decrease in canonical junction mRNA)
[5] = Tables 4A/4B, canonical junction qPCR panel, read-out: MYB (IC50, decrease in CJ mRNA, gene panel)

IC50 (HTT mRNA [1])	IC50 (MYB mRNA; [4])	IC50 (MYB mRNA; [5])	IC50 (SMN2 mRNA)	IC50 (Target C mRNA; Homo sapiens)	IC50 (HTT mRNA [2])	IC50 (Target C mRNA)	SMILES	AC50 (HTT mRNA [1])	AC50 (MYB mRNA; [3])
> 10 µM	> 10 µM	> 10 µM	1 to 10 µM	> 10 µM	> 10 µM	–	Cc1cc2c(N3CCNCC3)ccc(C(=O)Nc3ccc4cn(C)nc4c3)c2o1 [Compound 261]	> 10 µM	> 10 µM
1 to 10 µM	0.1 to 1 µM	0.1 to 1 µM	< 0.1 µM	> 10 µM	1 to 10 µM	–	Cc1cn2cc(NC(=O)c3ccc(N4CCNCC4)c4cc(C)oc34)c(C)cc2n1 [Compound 262]	1 to 10 µM	0.1 to 1 µM
1 to 10 µM	0.1 to 1 µM	0.1 to 1 µM	< 0.1 µM	1 to 10 µM	1 to 10 µM	–	Cc1cn2cc(NC(=O)c3ccc(N4CCNCC4)c4cc(C)oc34)ncc2n1 [Compound 263]	1 to 10 µM	0.1 to 1 µM
> 10 µM	> 10 µM	> 10 µM	> 10 µM	> 10 µM	> 10 µM	–	Cc1cn2nc(NC(=O)c3ccc(N4CCNCC4)c4cc(C)oc34)nc2c(C)n1 [Compound 264]	> 10 µM	> 10 µM
> 10 µM	> 10 µM	> 10 µM	1 to 10 µM	> 10 µM	> 10 µM	–	Cc1cn2nc(NC(=O)c3ccc(N4CCNCC4)c4cc(C)oc34)cc2c(C)n1 [Compound 265]	> 10 µM	> 10 µM
1 to 10 µM	0.1 to 1 µM	0.1 to 1 µM	< 0.1 µM	> 10 µM	1 to 10 µM	–	Cc1cn2cc(NC(=O)c3ccc(N4CCNCC4)c4cc(C)oc34)cc(Cl)c2n1 [Compound 266]	1 to 10 µM	< 0.1 µM
> 10 µM	1 to 10 µM	1 to 10 µM	< 0.1 µM	> 10 µM	> 10 µM	–	Cc1cn2cc(NC(=O)c3ccc(N4CCNCC4)c4cc(C)oc34)cc(C)c2n1 [Compound 267]	1 to 10 µM	0.1 to 1 µM
0.1 to 1 µM	< 0.1 µM	< 0.1 µM	< 0.1 µM	–	0.1 to 1 µM	1 to 10 µM	Cc1cn2cc(NC(=O)c3ccc(N4CCNCC4)c4cn(C)nc34)cc(Cl)c2n1 [Compound 269]	0.1 to 1 µM	< 0.1 µM
> 10 µM	1 to 10 µM	1 to 10 µM	0.1 to 1 µM	> 10 µM	> 10 µM	–	Cc1cn2cc(NC(=O)c3ccc(C4CC(C)(C)NC(C)(C)C4)c4cc(C)oc34)cc(F)c2n1 [Compound 271]	> 10 µM	1 to 10 µM
0.1 to 1 µM	0.1 to 1 µM	0.1 to 1 µM	< 0.1 µM	0.1 to 1 µM	0.1 to 1 µM	–	Cc1cn2cc(NC(=O)c3ccc(N4CCC(N5CCCC5)C4)c4cn(C)nc34)cc(F)c2n1 (centres unmarked) [Compound 272]	0.1 to 1 µM	< 0.1 µM
> 10 µM	0.1 to 1 µM	0.1 to 1 µM	< 0.1 µM	> 10 µM	> 10 µM	–	Cc1cn2cc(NC(=O)c3ccc(N4CCNCC4)c4cn(C)nc34)nc2c(C)n1 [Compound 273]	> 10 µM	0.1 to 1 µM
1 to 10 µM	0.1 to 1 µM	0.1 to 1 µM	< 0.1 µM	> 10 µM	1 to 10 µM	–	Cc1cn2cc(NC(=O)c3ccc(N4CC(C)(C)NC(C)(C)C4)c4cn(C)nc34)cc(F)c2n1 [Compound 274]	> 10 µM	0.1 to 1 µM
1 to 10 µM	0.1 to 1 µM	0.1 to 1 µM	< 0.1 µM	> 10 µM	1 to 10 µM	–	Cc1cn2cc(NC(=O)c3ccc(N4CCNCC4)c4cn(C)nc34)cc(C(F)(F)F)c2n1 [Compound 275, 2-methyl-N-[2-methyl-8-(trifluoromethyl)imidazo[1,2-a]pyridin-6-yl]-4-(piperazin-1-yl) indazole-7-carboxamide]	1 to 10 µM	< 0.1 µM
1 to 10 µM	0.1 to 1 µM	0.1 to 1 µM	< 0.1 µM	1 to 10 µM	1 to 10 µM	–	Cc1cn2cc(NC(=O)c3ccc(N4CCC(N(C)C)C4)c4cn(C)nc34)cc(Cl)c2n1 (centres unmarked) [Compound 278]	1 to 10 µM	< 0.1 µM
1 to 10 µM	> 10 µM	> 10 µM	1 to 10 µM	> 10 µM	1 to 10 µM	–	Cc1cn2cc(-c3ccc(C(=O)NC4CCNCC4)c4nn(C)cc34)cc(F)c2n1 [Compound 280]	1 to 10 µM	1 to 10 µM
1 to 10 µM	1 to 10 µM	1 to 10 µM	0.1 to 1 µM	1 to 10 µM	1 to 10 µM	–	Cc1cn2nc(-c3ccc(C(=O)NC4CCNCC4)c4nn(C)cc34)cc(C)c2n1 [Compound 281]	1 to 10 µM	1 to 10 µM
1 to 10 µM	> 10 µM	> 10 µM	0.1 to 1 µM	> 10 µM	1 to 10 µM	–	Cc1cn2nc(-c3ccc(C(=O)NC4CCNCC4)c4oc(C)cc34)cc(C)c2n1 [Compound 282]	1 to 10 µM	> 10 µM
1 to 10 µM	1 to 10 µM	1 to 10 µM	0.1 to 1 µM	> 10 µM	1 to 10 µM	–	Cc1cn2nc(-c3ccc(C(=O)NC4CCNCC4)c4oc(C)cc34)cc(F)c2n1 [Compound 283]	> 10 µM	> 10 µM
> 10 µM	0.1 to 1 µM	0.1 to 1 µM	0.1 to 1 µM	> 10 µM	> 10 µM	–	Cc1cn2cc(NC(=O)c3ccc(N4CCNCC4)c4c[nH]nc34)cc(Cl)c2n1 [Compound 286]	> 10 µM	1 to 10 µM
> 10 µM	0.1 to 1 µM	0.1 to 1 µM	< 0.1 µM	> 10 µM	> 10 µM	–	Cc1cn2cc(NC(=O)c3ccc(N4CCNCC4)c4cn(C(C)C)nc34)cc(F)c2n1 [Compound 290, N-{8-fluoro-2-methylimidazo[1,2-a]pyridin-6-yl}-2-isopropyl-4-(piperazin-1-yl)indazole-7-carboxamide]	> 10 µM	0.1 to 1 µM
1 to 10 µM	0.1 to 1 µM	0.1 to 1 µM	< 0.1 µM	1 to 10 µM	1 to 10 µM	–	Cc1cn2cc(NC(=O)c3ccc(N4CCNCC4)c4cn(CCO)nc34)cc(F)c2n1 [Compound 291, N-{8-fluoro-2-methylimidazo[1,2-a]pyridin-6-yl}-2-(2-hydroxyethyl)-4-(piperazin-1-yl)indazole-7-carboxamide hydrochloride]	1 to 10 µM	0.1 to 1 µM
1 to 10 µM	< 0.1 µM	< 0.1 µM	< 0.1 µM	1 to 10 µM	1 to 10 µM	–	COCCn1cc2c(N3CCNCC3)ccc(C(=O)Nc3cc(F)c4nc(C)cn4c3)c2n1 [Compound 292, N-{8-fluoro-2-methylimidazo[1,2-a]pyridin-6-yl}-2-(2-methoxyethyl)-4-(piperazin-1-yl)indazole-7-carboxamide hydrochloride]	1 to 10 µM	< 0.1 µM

SMILES	IC50 (HTT mRNA [1])	IC50 (MYB mRNA; [4])	IC50 (MYB mRNA; [5])	IC50 (SMN2 mRNA)	IC50 (Target C mRNA; Homo sapiens)	IC50 (HTT mRNA [2])	IC50 (Target C mRNA)	AC50 (HTT mRNA [1])	AC50 (MYB mRNA; [3])
Cc1cc2c(N3CCNCC3)ccc(C(=O)Nc3cn[nH]c3)c2o1 [Compound 268]	> 10 µM	> 10 µM	> 10 µM	> 10 µM	> 10 µM	> 10 µM	–	> 10 µM	> 10 µM
Cn1cc2c(N3CCNCC3)ccc(C(=O)Nc3cn[nH]c3)c2n1 [Compound 270]	> 10 µM	> 10 µM	> 10 µM	> 10 µM	> 10 µM	> 10 µM	–	> 10 µM	> 10 µM
CCn1cc2c(N3C[C@H]4CC[C@@H](C3)N4)ccc(C(=O)Nc3cc(F)c4nc(C)cn4c3)c2n1 [Compound 289, 4-[(1R,5S)-3,8-diazabicyclo[3.2.1]octan-3-yl]-2-ethyl-N-{8-fluoro-2-methylimidazo[1,2-a]pyridin-6-yl}indazole-7-carboxamide]	1 to 10 µM	0.1 to 1 µM	0.1 to 1 µM	< 0.1 µM	> 10 µM	1 to 10 µM	–	> 10 µM	0.1 to 1 µM
